In patent US20080171037A1, “Apo-3 ligand polypeptide” (Genentech, Inc., priority 1997, published 2008):
Where a SMILES comes first, the peptide text is derived from it. The star is where a group is joined. Cbz = O=C(OCc1ccccc1)*; CH2F = FC*

Key:
[1] = test system: MCF-7 breast carcinoma cells; experiment: Apoptosis in MCF-7 breast carcinoma cells (microscopy, Hoechst dye); assay type: cell-based, human; conditions: MCF-7 cells pre-treated 1 hour, then 14 hours with ligand, FIG. 9B
Protocol: Human MCF-7 breast carcinoma cells (ATCC HTB 22) were pre-treated for 1 hour with cyclohexamide (CHX) (10 μg/ml) and incubated for 14 hours with soluble Apo-3 Ligand (2 μg/ml; prepared as described in Example 3 above) alone or together with zVAD-fmk (Research Biochemicals) (100 nM). The cells were then stained with Hoechst dye and photographed by phase (FIG. 9A, left) and by fluorescence (FIG. 9A, right) microscopy. In FIG. 9A, arrowheads indicate some of the apoptotic cells (left) and their condensed nuclei (right).
In a separate experiment, the MCF-7 cells were pre-treated for 1 hour with buffer or CHX, incubated for an additional 14 hours with the indicated concentrations of soluble Apo-3 Ligand (see FIG. 9B), and apoptotic or live cells were score by microscopy.

[2] = target: T1, Apo-3 Ligand (Homo sapiens, UniProt O43508); experiment: Apoptosis induction by Apo-3 Ligand after preincubation with Flag tagged Apo-3 and immunodepletion; assay type: cell-based; conditions: preincubation of ligand and immunodepletion of complexes with anti-Flag beads, FIG. 8B
T1 construct: made in house; host or cells: E. coli
T1 sequence (O43508 47-249): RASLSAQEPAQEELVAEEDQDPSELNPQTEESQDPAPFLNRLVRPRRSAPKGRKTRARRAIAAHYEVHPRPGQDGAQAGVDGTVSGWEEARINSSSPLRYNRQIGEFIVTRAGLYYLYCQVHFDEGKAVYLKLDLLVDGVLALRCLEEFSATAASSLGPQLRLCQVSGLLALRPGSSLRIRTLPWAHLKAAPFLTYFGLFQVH
Text: Thus, there appeared to be a specific complex formation between Apo-3 Ligand and Apo-3.

[3] = test system: HeLa S3 cervical carcinoma cells; experiment: Apoptosis in HeLa S3 cells (DNA fragmentation analysis); assay type: cell-based, human; conditions: HeLa S3 cells, inhibitor 100 nM, FIG. 9C
Protocol: HeLa S3 cervical carcinoma cells (ATCC CCL 2.2) were similarly pre-treated with CHX and then incubated with soluble Apo-3 Ligand (prepared as described in Example 3 above) alone or together with zVAD-fmk or DEVD-fmk (Research Biochemicals) (100 nM). The treated cells were then subjected to DNA fragmentation analysis.

[4] = test system: HeLa cells; experiment: Apoptosis in HeLa cells transfected with full length Apo-3 Ligand (FACS, annexin V binding); assay type: cell-based, human; conditions: HeLa cells, inhibitor 200 μM, FIG. 6
Protocol: A pRK5 plasmid (see EP 307,247) encoding Apo-3 Ligand polypeptide (amino acids 1 to 249 of FIG. 1), or empty pRK5 plasmid, was transiently transfected along with a pRK5 plasmid encoding human CD4 as a marker for transfection into human HeLa cells by electroporation, and the cells were plated in tissue culture dishes. Four hours later, the caspase inhibitor z-VAD-fmk (Research Biochemicals) (200 μM) was added to some of the dishes. Twenty hours later, apoptosis was determined by FACS analysis of cells positive for the CD4 marker by measuring binding of fluorescein isothiocyanate (FITC)-conjugated annexin V (Brand Applications) (see WO 97/25428).

[5] = test system: Jun N-terminal kinase (JNK/SAPK); experiment: JNK/SAPK activity in 293 cells transfected with full length Apo-3 Ligand; assay type: cell-based, human; conditions: 293 cells, inhibitor 200 μM, FIG. 7
Protocol: The pRK5 plasmid encoding Apo-3 Ligand polypeptide or empty pRK5 plasmid (see Example 6 above) was transiently transfected into human 293 cells (ATCC CCL 1573) by calcium phosphate precipitation. Four hours later, one set of cells was treated with z-VAD-fmk (Research Biochemicals) (200 μM). Twenty hours later, the cells were harvested and analyzed for activity of Jun N-terminal kinase (JNK; also called stress activated protein kinase or SAPK) using a commercially available JNK/SAPK assay kit (New England Biolabs), and according to the manufacturer's instructions.

[6] = target: T2, DR5 (Homo sapiens, UniProt O14763); experiment: Co-immunoprecipitation binding assay with DR5 ECD; conditions: ligand and receptor 1 μg/ml, FIG. 8A
T2 construct: the ECD of the Apo-2L receptor, DR5; made in house
T2 sequence (O14763 56-184 limits assumed): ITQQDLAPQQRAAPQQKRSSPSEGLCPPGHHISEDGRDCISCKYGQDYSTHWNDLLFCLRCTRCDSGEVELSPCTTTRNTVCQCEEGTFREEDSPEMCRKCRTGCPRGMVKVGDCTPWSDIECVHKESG
Protocol: A Flag-epitope tagged soluble Apo-3 was produced (as described for DR5 in Sheridan et al., Science, 277:818 (1997)) and tested in a co-immunoprecipitation assay to examine its ability to associate with a histidine tagged soluble Apo-3 Ligand (see Example 3 above). […] The respective ligands (1 μg/ml) and receptors (1 μg/ml) were incubated for 1 hour at room temperature. The reaction mixtures were subjected to precipitation with anti-Flag antibody conjugated to sepharose beads (Kodak) (FIG. 8A, left) or nickel-sepharose (Qiagen) (FIG. 8A, right) by overnight incubation at 4° C. according to manufacturer's instructions and resolved by gel electrophoresis. The ligands were visualized by Western blot analysis with nickel-conjugated horseradish peroxidase. In FIG. 8A, molecular weight markers (kDa) are indicated on the left.

Compound: C[C@@H]1C[C@@H]([C@H](O)CC2CC(=O)NC(=O)C2)C(=O)[C@@H](C)C1 [cyclohexamide, reference compound]
- effect on Apo-3 ligand-induced apoptosis [1]: augmented

Compound: Flag tagged Apo-3: Flag-epitope tagged soluble Apo-3 receptor (also DR3, Wsl-1, TRAMP, LARD)
- effect on apoptosis induction by Apo-3 Ligand [2]: inhibited apoptosis induction

Compound: DEVD-fmk
- effect on induction of apoptosis by Apo-3 Ligand [3]: blocked induction of apoptosis

Compound: COC(=O)C[C@H](NC(=O)[C@H](C)NC(=O)[C@@H](NC(=O)OCc1ccccc1)C(C)C)C(=O)CF [z-VAD-fmk, reference compound] (Cbz-Val-Ala-Asp(OMe)-CH2F)
- effect on the increase in apoptosis by Apo-3 Ligand transfection [4]: blocked
- effect on JNK activation by Apo-3 Ligand [5]: augmented JNK activation
- effect on induction of apoptosis by Apo-3 Ligand [3]: blocked induction of apoptosis

Compound: Apo-2 Ligand: TNF family cytokine, also referred to as TRAIL, tested for comparison
- binding to DR5 [6]: bound to DR5
